{"source": "patent US7786042B2", "about": "“Fluridone as an anti-inflammatory agent” (Universita' Degli Studi Di Genova, priority 2005, dated 2010)", "key": {"[1]": {"tested_on": "murine macrophages RAW 264.7", "test": "COX-2 expression in LPS-stimulated RAW 264.7", "format": "cell-based", "details": "exogenous ABA 10-20 μM added to fluridone-treated cultures", "protocol": "Murine macrophages from the RAW 264.7 cell line were stimulated with 10 μM ABA or with 100 ng/ml lipopolysaccharide (LPS) for 6 hours, after pre-incubation with 50 μM fluridone for 3 hours."}, "human granulocytes [2]": {"tested_on": "human granulocytes", "test": "Chemotaxis and chemokinesis of granulocytes", "format": "cell-based", "details": "ABA 0.2-20 μM", "method": "Assays were performed using 96-well ChemoTx system microplates with a 3-μm pore size polycarbonate filter (NeuroProbe Inc., Gaithersburg, USA). Cells (granulocytes or murine microglia) were resuspended at 10^7/ml in HBSS, PBS and 5% albumin, 39:16:1 (chemotaxis buffer, CB). In order to evaluate the chemoattractant effect of ABA, hormone concentrations ranging from 50 nM to 20 μM were added in CB in the bottom wells and 25 μl cell suspensions were placed on top of the filter. To evaluate a possible stimulatory effect of ABA on spontaneous cell movements (chemokinesis), cells were pre-incubated with or without 20 μM ABA, then washed and placed on top of the filter, in contact with CB. Plates were incubated at 37° C. for 60 min and transmigrated cells were recovered and quantified by fluorimetric assay with Cytox Green. The number of transmigrated cells was calculated by comparison of the measured fluorescence with that of a standard curve, obtained by directly placing a serial dilution of cells in the bottom wells. The results of the chemotaxis experiments are expressed as “chemotaxis index” (CI): CI=number of cells migrated towards chemoattractant/number of cells migrated towards CB"}, "human granulocytes [3]": {"tested_on": "human granulocytes", "test": "GDP-ribosyl cyclase activity in granulocytes", "format": "cell-based", "details": "ABA 0.2 to 200 μM; detectable after 5 min", "protocol": "Panel A. GDP-ribosyl cyclase activity has been measured in granulocytes in the presence of increasing ABA concentrations, added together with the cyclase substrate NGD^+. The results are expressed as cyclase activity relative to control cells, incubated in the absence of ABA (mean ±SD from 5 determinations). Panel B. The intracellular concentration of cADPR was measured by enzymatic cycling assay (Materials and Methods) on granulcoytes incubated with 20 μM ABA for the periods of time indicated. The results are expressed as [cADPR]i relative to control cells, incubated without ABA (n=2).\nGranulocytes were resuspended in HBSS (60×10^6/ml) and cyclase activity was measured by adding the substrate NGD^+ (a NAD^+ analogue, which product cGDPR is fluorescent) at the concentration of 0.2 mM together with increasing concentrations of ABA. At various times (0, 5, 15, 60 and 120 min) 100 μl-aliquots were withdrawn and centrifuged (5,000×g for 15 s) and supernatants were deproteinized with 2.5% (v/v) trichloroacetic acid. The cGDPR content was estimated by HPLC analysis, as described in (Guida, FEBS 1995)."}, "rats": {"tested_on": "rats", "details": "oral administration; cited from earlier work"}}, "note": "“Also recorded” adds a separate entry of the source."}
{"smiles": "CC1=CC(=O)CC(C)(C)[C@@]1(O)/C=C/C(C)=C\\C(=O)O", "note": "(racemic) [ABA, (±)-cis, trans ABA]", "values": [{"measurement": "increase of COX-2 expression compromised by fluridone", "setting": "[1]", "result": "partly restores"}, {"measurement": "chemokinesis", "setting": "human granulocytes [2]", "result": "significant increase; also recorded: ↑chemokinesis"}, {"measurement": "chemotaxis (chemoattractant effect)", "setting": "human granulocytes [2]", "result": "behaves as a chemoattractant; also recorded: ↑chemotaxis"}, {"measurement": "GDP-ribosyl cyclase activity", "setting": "human granulocytes [3]", "result": "dose-dependent stimulation"}]}
{"smiles": "Cn1cc(-c2ccccc2)c(=O)c(-c2cccc(C(F)(F)F)c2)c1", "note": "[Fluridone, 1-methyl-3-phenyl-5-(α,α,α-trifluoro-m-tolyl)-4-pyridone]", "values": [{"measurement": "LD50", "setting": "rats", "result": "> 10", "unit": "g/kg"}]}
